From patent US9550782B2, “Compounds and methods for treating diabetes” (Medivation Technologies, Inc., priority 2011, dated 2017)
Where “and” joins values, the source holds several entries; their conditions need not be identical. Identical values can stand only once.

Key:
[1] = target: T1, human recombinant adrenergic α2A receptor (Homo sapiens, UniProt P08913); assay: Radioligand binding, adrenergic α2A ([3H]MK-912); conditions: [3H]MK-912, repeat datapoints each shown; for Percentage inhibition of ligand binding, Adrenergic α2A (0.1 μM): compound at 0.1 μM; for Percentage inhibition of ligand binding, Adrenergic α2A (0.03 μM): compound at 0.03 μM
T1 construct: expressed in transfected cells; host or cells: insect Sf9 cells
T1 sequence (P08913 1-465): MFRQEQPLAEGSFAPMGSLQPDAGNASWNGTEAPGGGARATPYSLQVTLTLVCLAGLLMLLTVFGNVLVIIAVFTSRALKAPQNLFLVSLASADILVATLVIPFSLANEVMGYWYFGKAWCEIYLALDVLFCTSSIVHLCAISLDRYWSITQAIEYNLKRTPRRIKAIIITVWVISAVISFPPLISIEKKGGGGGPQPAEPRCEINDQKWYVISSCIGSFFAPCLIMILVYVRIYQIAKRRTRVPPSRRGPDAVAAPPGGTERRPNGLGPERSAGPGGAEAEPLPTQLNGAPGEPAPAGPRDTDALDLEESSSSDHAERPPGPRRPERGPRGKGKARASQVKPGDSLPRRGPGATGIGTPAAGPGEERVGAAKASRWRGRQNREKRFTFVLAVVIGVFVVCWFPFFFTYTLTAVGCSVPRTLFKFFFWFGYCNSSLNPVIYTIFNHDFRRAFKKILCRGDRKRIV
In short: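 In 50 mM Tris-HCl (pH 7.4) containing 12.5 mM MgCl2 and 2 mM EDTA, Sf9-expressed receptor was exposed to test compound plus 1 nM [3H]MK-912 at 25 °C for 60 min. Specific binding, corrected using 10 μM WB-4101, was quantified by filtration and counting and expressed as percent inhibition.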

[2] = target: T2, human recombinant adrenergic α2B receptor (Homo sapiens, UniProt P18089); assay: Radioligand binding, adrenergic α2B ([3H]Rauwolscine); conditions: compound at 0.03 μM, repeat datapoints each shown, 0.03 µM
T2 construct: expressed in transfected cells; host or cells: CHO-K1
T2 sequence (P18089 1-450): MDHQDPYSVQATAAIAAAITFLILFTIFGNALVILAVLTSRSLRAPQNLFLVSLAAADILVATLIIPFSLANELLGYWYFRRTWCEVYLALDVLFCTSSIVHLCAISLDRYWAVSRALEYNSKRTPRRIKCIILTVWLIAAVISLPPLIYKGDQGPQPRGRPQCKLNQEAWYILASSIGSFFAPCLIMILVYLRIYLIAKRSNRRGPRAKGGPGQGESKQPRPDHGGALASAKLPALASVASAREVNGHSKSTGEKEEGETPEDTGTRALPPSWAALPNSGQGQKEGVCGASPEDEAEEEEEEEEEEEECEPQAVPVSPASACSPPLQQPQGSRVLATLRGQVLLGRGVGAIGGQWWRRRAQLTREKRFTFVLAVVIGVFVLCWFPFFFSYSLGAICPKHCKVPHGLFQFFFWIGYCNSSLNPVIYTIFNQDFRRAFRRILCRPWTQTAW
Experimental: To evaluate in radioligand binding assays the activity of compounds of the invention, human recombinant adrenergic α2B receptor expressed in Chinese hamster ovary (CHO) K1 cells (Uhlen, S. et al, Eur. J. Pharmacol. 343(1):93, 1998) in a modified Tris-HCl buffer (50 mM Tris-HCl, pH 7.4, 12.5 mM MgCl2, 1 mM EDTA, 0.2% BSA) was used. Compounds of the invention were incubated with 2.5 nM [3H]Rauwolscine for 60 min at 25° C. Non-specific binding was estimated in the presence of 10 μM Prazosin. Receptor proteins were filtered and washed, the filters were then counted to determine [3H]Rauwolscine specifically bound. […] Compounds of the invention were tested in this biochemical assay and percent inhibition of specific binding was determined. Biochemical assay results are presented as the percent inhibition of specific binding in Table B1.

[3] = target: T3, rat adrenergic α1B receptor (Rattus norvegicus, UniProt P15823); assay: Radioligand binding, adrenergic α1B ([3H]Prazosin); parameters: species or system Wistar Rat; conditions: repeat datapoints each shown; for Percentage inhibition of ligand binding, Adrenergic α1B (0.1 μM): compound at 0.1 μM; for Percentage inhibition of ligand binding, Adrenergic α1B (0.03 μM): compound at 0.03 μM
T3 construct: rat adrenergic α1B receptor obtained from Wistar Rat liver; from tissue; host or cells: Wistar rat liver
T3 sequence (P15823 1-515): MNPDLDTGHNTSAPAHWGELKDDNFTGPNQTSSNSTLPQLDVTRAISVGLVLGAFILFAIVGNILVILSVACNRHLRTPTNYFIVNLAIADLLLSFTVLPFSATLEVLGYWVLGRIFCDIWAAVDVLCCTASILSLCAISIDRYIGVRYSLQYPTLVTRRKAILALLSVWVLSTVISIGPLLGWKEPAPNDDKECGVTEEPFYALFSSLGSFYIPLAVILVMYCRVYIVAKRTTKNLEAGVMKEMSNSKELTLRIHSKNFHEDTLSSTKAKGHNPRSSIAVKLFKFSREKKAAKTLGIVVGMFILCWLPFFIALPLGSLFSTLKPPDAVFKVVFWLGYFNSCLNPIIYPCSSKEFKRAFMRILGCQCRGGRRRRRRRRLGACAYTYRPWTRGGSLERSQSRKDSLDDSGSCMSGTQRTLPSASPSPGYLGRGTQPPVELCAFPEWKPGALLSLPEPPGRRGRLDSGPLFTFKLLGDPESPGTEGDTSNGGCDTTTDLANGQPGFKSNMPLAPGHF
In short: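 Filter binding with Wistar rat liver α1B preparation: test compound plus 0.25 nM [3H]prazosin, 1 h at 25° C in modified Tris-HCl buffer pH 7.4.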

Percentage inhibition of ligand binding, Adrenergic α2A (0.1 μM) [1] | Percentage inhibition of ligand binding, Adrenergic α2B (0.03 μM) [2] | Percentage inhibition of ligand binding, Adrenergic α1B (0.1 μM) [3] | Percentage inhibition of ligand binding, Adrenergic α2A (0.03 μM) [1] | Percentage inhibition of ligand binding, Adrenergic α1B (0.03 μM) [3] | SMILES
19% | 1% and 7% | 1% | – | – | Cc1cnc2c(c1)c1c(n2CC(C)(O)c2cccnc2)CCN2CCCC12 (single isomer, unassigned) [26c]
0% | 6% and 11% | −2% | – | – | Cc1cnc2c(c1)c1c(n2CC(C)(O)c2cccnc2)CCN2CCCC12 (single isomer, unassigned) [26d]
28% | 96% | 41% | – | – | CN1CCc2c(n(CC(C)(O)c3cccnc3)c3ccc(Cl)cc23)C1 (single isomer, unassigned) [28a]
24% | 37% | 20% | – | – | CN1CCc2c(n(CC(C)(O)c3cccnc3)c3ccc(Cl)cc23)C1 (single isomer, unassigned) [28b]
35% and 39% | 98% and 100% | 32% and 38% | 16% | 19% | Cc1ccc2c(c1)c1c(n2CC(C)(O)c2ccc(C)nc2)CCN(C)C1 (single isomer, unassigned) [29a]
19% and 27% | 93% and 97% | 25% and 28% | 11% | 16% | CN1CCc2c(c3cc(Cl)ccc3n2CC(C)(O)c2cccnc2)C1 (single isomer, unassigned) [31a]
8% | 33% | 14% | – | – | CCC1c2c(c3cc(C)ccc3n2CC(O)c2ccncc2)C2CCN1C2 (single isomer, unassigned) [36a]
0% | −1% | 11% | – | – | CCC1c2c(c3cc(C)ccc3n2CC(O)c2ccncc2)C2CCN1C2 (single isomer, unassigned) [36b]
18% | 2% | −5% | – | – | OC(Cn1c2c(c3cccnc31)CN1CCCC1C2)c1ccncc1 (single isomer, unassigned) [37a]
−20% | −3% | −10% | – | – | OC(Cn1c2c(c3cccnc31)CN1CCCC1C2)c1ccncc1 (single isomer, unassigned) [37b]
6% | 0% | 2% | – | – | OC(Cn1c2c(c3cccnc31)CN1CCCC1C2)c1ccncc1 (single isomer, unassigned) [37c]
8% | −3% | 2% | – | – | OC(Cn1c2c(c3cccnc31)CN1CCCC1C2)c1ccncc1 (single isomer, unassigned) [37d]
14% | 35% | 11% | – | – | Cc1ccc2c(c1)c1c(n2CC(O)c2ccncc2)C(C)N2CCC1C2 (single isomer, unassigned) [38a]
−1% | 17% | 20% | – | – | Cc1ccc2c(c1)c1c(n2CC(O)c2ccncc2)C(C)N2CCC1C2 (single isomer, unassigned) [38b]
7% | 27% | 2% | – | – | CN1CCc2c(c3ccc(C(F)(F)F)cc3n2CC(O)c2cccnc2)C1 (single isomer, unassigned) [40a]
13% | 29% | −2% | – | – | CN1CCc2c(c3ccc(C(F)(F)F)cc3n2CC(O)c2cccnc2)C1 (single isomer, unassigned) [40b]
−9% | 14% | 43% | – | – | CN1CCc2c(n(CC(O)c3ccncc3)c3ccc(Cl)cc23)C1 (single isomer, unassigned) [41a]
8% | 50% | 50% | – | – | CN1CCc2c(n(CC(O)c3ccncc3)c3ccc(Cl)cc23)C1 (single isomer, unassigned) [41b]
−4% | 54% | 23% | – | – | CN1CCc2c(c3cccc(Cl)c3n2CC(O)c2ccncc2)C1 (single isomer, unassigned) [45a]
16% | 96% | 24% | – | – | CN1CCc2c(c3cccc(Cl)c3n2CC(O)c2ccncc2)C1 (single isomer, unassigned) [45b]
